Experiments:
[1] = test system: purine nucleoside phosphorylase (PNP); assay: PNP inhibition in vivo: plasma inosine level in mice after oral dose; conditions: at a dose of e.g. 10 mg/Kg p.o.
Method: Briefly, mice are treated orally with the PNP inhibitor suspended in fortified cornstarch (3% cornstarch suspension in water with 0.33% Tween 80 and 5% PEG 400) at a final volume of 10 ml/kg. One or more hours after a single oral dose of compound, the mice are bled by cardiac puncture into 25 U/ml heparin to obtain plasma. The samples are analyzed for both inosine and drug levels by a gradient reverse-phase high performance liquid chromatography (HPLC) method (see Anal Chem, 1977, 49:2237-41). Quantitation is performed using an internal standard method with 2',3'-dideoxyinosine (DDI) as the internal standard.

CCRF-CEM cells = assay: CCRF-CEM cell assay: potentiation of the cell growth inhibitory activity (cytotoxicity) of 2'-deoxyguanosine (d-Guo); format: cell-based; conditions: Homo sapiens, d-Guo 10 μM, 72 hours
Method: The selective suppression of spontaneous T-cell proliferation in vitro is measured by the potentiation of the cell growth inhibitory activity (cytotoxicity) of 2'-deoxyguanosine (d-Guo) by the compounds of the invention, determined as follows: Human CCRF-CEM cells are grown in RPMI-1640 medium. To suspension cultures of these cells, d-Guo at a fixed concentration (10 μM) and the candidate PNP inhibitor at varied concentrations are added and the number of cells are determined in a Coulter counter 24, 48, and 72 hours thereafter. […] This method is similar to that previously used to determine the effectiveness of PNP inhibitors on potentiation of the toxicity of d-Guo. [See D. A. Shewach et al., Cancer Res., 46, 519 (1986); J. C. Sircar et al., Agents and Actions, 21, 253 (1987), also Methods in Pharmacology, D. M. Paten, ed. 1985, pp. 147-162].

[2] = biological target: T1, purine nucleoside phosphorylase (PNP) (Bos taurus, UniProt P55859); assay: PNP inhibition in vitro, enzymic determination of inorganic phosphate (PNP/xanthine oxidase), calf spleen PNP; format: biochemical; conditions: 1 mM phosphate concentration; calf spleen PNP; substrate inosine
T1 construct: Calf spleen PNP is used as the enzyme source; from tissue; host or cells: calf spleen
T1 sequence (P55859 1-289): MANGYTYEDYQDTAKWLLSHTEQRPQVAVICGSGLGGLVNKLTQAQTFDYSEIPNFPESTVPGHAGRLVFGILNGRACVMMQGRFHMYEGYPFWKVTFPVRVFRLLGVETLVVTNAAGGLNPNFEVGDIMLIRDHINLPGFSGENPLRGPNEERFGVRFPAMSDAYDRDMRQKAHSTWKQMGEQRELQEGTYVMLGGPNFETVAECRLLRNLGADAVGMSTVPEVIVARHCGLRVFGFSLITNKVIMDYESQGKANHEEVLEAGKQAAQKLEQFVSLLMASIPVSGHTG
Method: PNP inhibition can be measured by measuring the formation of [^14- C]-[…] [Biomedicine, 33, 39 (1980)] using calf spleen as the enzyme source and 1 or 50 mM phosphate. Results are expressed as IC50 values, corresponding to the concentration of compound required to achieve a 50% reduction of the formation of hypoxanthine.
PNP inhibition can also be determined in vitro as follows: An enzymic method for the determination of inorganic phosphate (see Chem. Pharm. Bull., 1981, 29:1451-5), based on the principle of forming hydrogen peroxide with purine nucleoside phosphorylase (PNP) and xanthine oxidase, is used to calorimetrically measure the degree of linkage between enzyme and substrate (inosine). Calf spleen PNP is used as the enzyme source. The IC50 values for the compounds studied are determined graphically at two phosphate concentrations (1 and 50 mM) from a plot of percent inhibition versus compound concentration.

transplant rejection = assay: Protection against transplant rejection, mouse tail skin transplantation procedure; format: in vivo, mouse (C57BL/10-SnJ and B10.BR/SgSnJ)
From the text: Protection against transplant rejection can be determined in a mouse tail skin transplantation procedure.
Mice are anesthetized with tribromoethanol i.p. injection according to the method of Papaioannou and Fox (Lab. Animal Science 1993;43:189-92). The mouse tail skin transplant rejection model is a modification of that described by Baily and Usama, (Transpl. Bull. 1960;7:424-5). Four skin grafts per mouse are exchanged between strains [C57BL/10-SnJ (H-2K^b) and B10.BR/SgSnJ (H-2K^k)] at surgery (d0). Fitted skin grafts are made with a scalpel, and tail graft sites are protected with tubing for 2 days following surgery. Mouse tails are evaluated at day 7 for missing grafts. Only those graft sites that have patent grafts at day 7 are evaluated at later scoring intervals. Grafts are scored numerically for signs of rejection at ~weekly scoring intervals starting day 14. Dose-group mean graft scores are compared statistically.

[3] = test system: collagen II induced arthritis; assay: Antiarthritic activity, collagen II induced arthritis in mice model; format: in vivo, DBA/1LacJ female mice; conditions: 20 mg/Kg/day; orally once daily, day 1 through day 42
Method: The antiarthritic activity can be determined in the collagen II induced arthritis in mice model. DBA/1LacJ female mice, 6-8 weeks old, are immunized with 100 μg of chicken type II collagen emulsified in Freund's complete adjuvant (FCA) by injecting at the base of the tail on day 0. On day 17 after collagen injection, the immune response to type II collagen is boosted with a subcutaneous injection of 200 μg LPS solubilized in PBS. Paws are examined on days 17, 21, 24, 28, 31, 35, and 42 and scored for the symptoms of arthritis based on criteria such as inflammation, swelling and ankylosis. Compounds are suspended in corn starch vehicle and administered orally to mice once daily beginning on day 1 and continuing through day 42.

SMILES	plasma level of inosine [1]	IC50 (CCRF-CEM cells)	IC50 [2]	protection against transplant rejection (transplant rejection; 50 mg/Kg/day, mouse)	transplant rejection model, combination with cyclosporin (transplant rejection; combination of compound and cyclosporin vs either alone)	antiarthritic activity [3]
Nc1nc2c([C@@H](CO)c3ccccc3)c[nH]c2c(=O)[nH]1 [Example 3f, 2-Amino-7-(2(S)-hydroxy-1-phenylethyl)-3,5-dihydro-4H-pyrrolo[3,2-d]-pyrimidin-4-one]	significant increase in the plasma level of inosine	~100 nM	~10 nM			
Nc1nc2c([C@@H](CO)c3ccccc3F)c[nH]c2c(=O)[nH]1 [Example 1, 2-amino-7-[1-(2-fluorophenyl)-2(R)-hydroxyethyl]-3,5-dihydro-4H-pyrrolo[3,2-d]pyrimidin-4-one]	significant increase in the plasma level of inosine	~75 nM	~10 nM	effective in protecting against transplant rejection	superior to either cyclosporin or the PNP inhibitor alone	effective

— patent US6043365A, “Preparation of 2-amino-7-(1-substituted-2-hydroxyethyl)-3, 5-dihydropyrrolo[3,2-d]pyrimidin-4-ones” (Novartis AG, priority 1998, dated 2000)
